Test results reported in patent US20100197712A1, “USE OF DOPAMINE STABILIZERS” (priority 2007, published 2010).
Where a name gives a salt, the structure may show the parent alone. Values belong to the compound of their own block, whether it stands above or below them.

Experiments:
active rats = assay: Video tracking: motor activity (velocity) of active rats; type: in vivo, Sprague-Dawley rats
Description: (§1) Prior to testing, the rats were housed for approximately 1 week with free access to food and water, in groups of four or five in Macrolon type III cages in the animal facility of the Sahlgrenska Academy at Göteborg University. The experiments were approved by the animal ethics committee in Göteborg.
(§2) OSU6162, ACR16, apomorphine and (−)-3-PPP were dissolved in 0.9% saline. A few grains of ascorbic acid were added to apomorphine solutions to prevent oxidation of the drug. Haloperidol and amisulpride were dissolved in a minimum amount of acetic acid and diluted with 5.5% glucose. The solutions were adjusted to pH 5-7 with sodium bicarbonate. Aripiprazole was dissolved in a minimum amount of heated acetic acid, diluted in warm 5.5% glucose and adjusted to pH 4-5. All drugs were administered intraperitoneally (i.p.) or subcutaneously (s.c.) in volumes of 5 ml/kg. Control treatments consisted of the appropriate vehicle administered in accordance with the drug treatment at issue.
(§3) The rats were housed in reverse daylight cycle and all handling of the animals was performed in dim light. Apomorphine was administered s.c. 5 minutes prior to testing, while all other drugs were injected i.p. or s.c. 30 minutes before testing. Single rats were introduced into rectangular arenas (l/w/h: 150×100×40 cm) illuminated indirectly by one infrared lamp (Neocom, South Korea). The rats' movements were recorded to digital (MPEG2) video files using an IR sensitive video camera (Panasonic WV-CPR480, lens: Panasonic LA-408C3) connected to a PC equipped with a MPEG-encoder (MVR1000^SX, Canopus Co.). […] Behavioural variables were extracted from the tracks in MatLab (The MathWorks, Inc., USA) with functions developed in this laboratory. Mean velocity was used to measure motor activity. Prior to calculation of velocity the tracks were subjected to a running mean filter, i.e. each sample was replaced by the mean of fifteen consecutive samples.
(§4) In several cases data from two or more experiments have been pooled. […] Confirmed outlying values (N=0-3 per experiment) were excluded from statistical analyses and graphical presentations. Data from the video tracking setting was analyzed with univariate general linear model (GLM). Following GLM analysis, comparisons versus the appropriate control groups were performed with Dunnet's post hoc test. […] Data obtained from activity boxes was analyzed with Kruskal-Wallis one-way analysis of variance by ranks. […] All statistical tests were two sided and p<0.05 was considered statistically significant.

habituated rats = assay: Motor activity of habituated rats in activity boxes; type: in vivo, Sprague-Dawley rats; settings: s.c.
Description: as §1, §2
Rats were housed in a normal daylight cycle and testing was performed during daytime. Animals were introduced into sound attenuated, illuminated activity boxes (1/w/h: 40×40×20 cm) and were allowed to habituate in the new environment for 65 minutes. During the following 5 minutes test drugs were injected s.c., after which the rats were returned to the boxes for another 60 minutes. Five by five rows of photocell beams at floor level allowed a computer based-system to register horizontal activity. Motor activity is presented as accumulated number of unrepeated beam breaks, i.e. several consecutive breakings of one beam is counted as one beam break. The software was set to register behaviour from the rat's first introduction into the arena until it was finally removed from the box, i.e. for 130 minutes. Activity is presented separately for t=0-30 min and t=30-60 min after injection.
as §4

human D2l receptors = biological target: T1, human D2l receptors (Homo sapiens, UniProt P14416); assay: Incorporation of GTPgammaS^35 in CHO-hD2l membranes; type: biochemical
T1 construct: expressed in transfected cells; host or cells: CHO (CHO-hD2l cells), membrane preparation
Description: Membranes were stored at −80° C. at a concentration of 1 mg protein/ml buffer.
Dopamine-stimulated GTPgammaS^35 incorporation was determined using the following procedure: in a buffer containing 20 mM HEPES, 5 mM Mg Cl2, 100 mM NaCl, at pH 7.5, membranes ([…]) were incubated with vehicle, drugs and 3 μM GDP for 30 min at 30° C., total volume was 1.1 ml. […] The reaction was stopped by filtering the samples with a Brandel harvester on Whatmann GF/B filters. Filters were placed in liquid scintillation vials containing 10 ml of BCS scintillation fluid and counted the next day. All samples were run in triplicate.

[1] = test system: apomorphine induced hypomotility in rats; assay: Apomorphine induced hypomotility in rats (video tracking); type: in vivo, Sprague-Dawley rats
Description: FIG. 7. […] Test drugs were administered 30 minutes prior to registration. Motor activity was measured for 30 minutes as velocity in the video tracking setting. Statistical comparisons were made versus the apomorphine group with univariate general linear model, followed by Dunnet's post hoc test. *p<0.05; *p<0.01; ***p<0.001. FIG. 8.
as §3, §4

[2] = test system: mice pretreated with reserpine and alpha-methylpara-tyrosine; assay: Mouse model of Parkinsonism (reserpine and alpha-methyl-para-tyrosine pretreated mice); type: in vivo, NMRI mice
Description: Animals were pretreated with reserpine (10 mg/kg i.p.) and alpha-methylpara-tyrosine (500 mg/kg i.p.) 18 and 4 hours before the experiment, respectively, and were then treated with various i.p. doses of OSU6162, expressed in […], or saline (“ctr”). Immediately following injection the animals were placed in individual cages and video-taped from above for 60 min. Shown are the distances moved, means and S.E.M. N=5-6 per treatment group. Statistics: *P<0.05, **p<0.01, as compared with the controls.
In these experiments we used male NMRI mice weighting 25-30 g at the time of testing. The mice were pretreated with reserpine, 10 mg/kg i.p., 18 hours, and alpha-methyl-para-tyrosine HCl, 500 mg/kg i.p. 2 hours, respectively, before the experiment.
The actual experiment was started by injecting either OSU6162 in doses of 5, 25 or 125 μmol/kg i.p.or placebo (a physiological saline solution). Each dosage group consisted of 5-6 mice. Immediately after injection the mice were placed in individual cages and video taped from above for 60 min. Various aspects of motility were analysed from the video tapes.
Statistical calculations were performed with the non parametric Mann-Whitney U-test, and asterisks in the graph indicate significant differences compared to control group (*p<0.05; **p<0.01).

rats [3] = assay: Preliminary experiment: rats in large illuminated arenas during daytime; type: in vivo
Source text: As to the issues of illumination and daylight cycle, behavioural inhibition has been observed in ultraviolet (Rung et al., 2005b) or infrared light (current study) during the dark hours of the rats' diurnal rhythm. Based on how the light is perceived by humans, we presume that the ultraviolet and infrared light used in these studies is perceived by the rats as dim light and darkness respectively.

dopamine D2 receptors = dopamine D2 receptors (Homo sapiens, UniProt P14416); settings: in-vitro binding, Sonesson et al. 1994; cited from earlier work
[4] = clinical dosages of at least 25 mg per day; cited from earlier work
[5] = test system: amphetamine-induced hyperactivity in rats; settings: Natesan et al., 2006; cited from earlier work
rats [6] = settings: small activity boxes; pre-treatment 30 minutes; dark hours, light turned off; preliminary
[7] = Hartter et al., 2003; cited from earlier work
[8] = whole 60 min registration / either time interval
[9] = i.p., 30 min prior to 30 min tracking
[10] = apomorphine 0.16 μmol/kg s.c., test drug i.p. 30 min prior, dose range per drug

T1 sequence (P14416 whole entry): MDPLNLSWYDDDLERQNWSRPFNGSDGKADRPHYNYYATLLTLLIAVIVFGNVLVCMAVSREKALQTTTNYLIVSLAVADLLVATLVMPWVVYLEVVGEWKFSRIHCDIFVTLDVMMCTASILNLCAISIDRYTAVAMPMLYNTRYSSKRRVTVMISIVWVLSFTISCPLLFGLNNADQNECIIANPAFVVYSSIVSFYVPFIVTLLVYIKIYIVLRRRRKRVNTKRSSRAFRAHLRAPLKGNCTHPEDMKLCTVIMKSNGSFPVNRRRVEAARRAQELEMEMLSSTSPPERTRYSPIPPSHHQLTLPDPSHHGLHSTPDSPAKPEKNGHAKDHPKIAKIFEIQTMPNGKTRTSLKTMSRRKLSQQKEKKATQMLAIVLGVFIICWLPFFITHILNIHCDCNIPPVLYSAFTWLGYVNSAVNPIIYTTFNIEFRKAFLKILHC
dopamine D2 receptors, sequence (P14416 whole entry): as above

Structure (SMILES): CCCN1CCC[C@@H](c2cccc(O)c2)C1 [(−)-3-PPP, S-(−)-3-[3-hydroxyphenyl]-1-propylpiperidine, reference compound]
- motor activity (velocity) (active rats; s.c., 30 min prior to 30 min tracking, OSU6162 50-200 μmol, (−)-3-PPP 2.5 and 10 μmol/kg): marked and dose-dependent inhibition on motor activity, that was statistically significant at all doses tested
- motor activity (accumulated unrepeated beam breaks) (habituated rats; [8]): did not have any statistically significant effects on motor activity in either time interval

- increase of the incorporation of GTPgammaS^35 (human D2l receptors; absence of dopamine, 100 to 10,000 nM (−)OSU6162): 8 to 11%
- effect on GTPgammaS^35 incorporation (human D2l receptors; dopamine 10 to 100 nM, (−)-OSU6162 1,000 to 10,000 nM): this increase was no longer seen
- effect on GTPgammaS^35 incorporation (human D2l receptors; dopamine 1,000 and 10,000 nM, varied (−)-OSU6162 levels): similar, though flatter activity curves
Structure (SMILES): CCCN1CCC[C@@H](c2cccc(S(C)(=O)=O)c2)C1 [(−)-OSU6162, S-(−)-3-[3-methylsulfonylphenyl]-1-propylpiperidine]
- effect on GTPgammaS^35 incorporation (human D2l receptors; dopamine 10 to 100 nM, (−)-OSU6162 10 to 100 nM): caused an increased incorporation of GTPgammaS^35
- motor activity (velocity) (active rats; [9]): dose-dependent and statistically significant reduction of motor activity
- dose at which a significant effect on motor activity shows up (habituated rats; later experiment with lower doses 6.25 and 12.5 μmol/kg): 12.5 µmol/kg
- motor activity (accumulated unrepeated beam breaks) (habituated rats; t=0-30 min after injection): marked locomotor activation
- motor activity (accumulated unrepeated beam breaks) (habituated rats; t=30-60 min after injection): the three highest doses significantly stimulated locomotion
- effect on apomorphine-induced hypomotility ([1]; apomorphine 0.16 μmol/kg s.c., OSU6162 120 μmol/kg i.p.): seemed to cause a marked drop in motor activity
- effect on apomorphine-induced hypomotility [1, 10]: modest but apparently dose dependent reversal of apomorphineinduced hypomotility up to a dose of 60 μmol/kg
- motility (distance moved, 60 min) ([2]; OSU6162 5 μmol/kg i.p.): showed only minimal signs of motility
- motility (distance moved, 60 min) ([2]; OSU6162 two higher doses (25, 125 μmol/kg i.p.)): significant, dose dependent increase in motility
- behavioural response (rats [3]; daytime, large illuminated arenas, not habituated): behavioural inhibition similar to that observed in darkness
- behavioural response (rats [3]; rats habituated to large illuminated arenas): did not respond with any change in activity
- Ki (dopamine D2 receptors): in the micromolar region
- cardiac adverse effects [4]: QTc values higher than normal, cardiac arrhythmia, or heart rhythm abnormalities, such as torsades de pointes
- effect on amphetamine-induced hyperactivity [5]: reverse amphetamine-induced hyperactivity

Structure (SMILES): CCCN1CCC(c2cccc(S(C)(=O)=O)c2)CC1 [ACR16, 4-(3-methanesulfonylphenyl)-1-propyl-piperidine]
- motor activity (velocity) (active rats; [9]): dose-dependent and statistically significant reduction of motor activity
- motor activity (accumulated unrepeated beam breaks) (habituated rats; t=0-30 min after injection): this effect increased dose-dependently
- motor activity (accumulated unrepeated beam breaks) (habituated rats; t=30-60 min after injection): the effect appeared to peak at the dose 50 μmol/kg
- motor activity (accumulated unrepeated beam breaks) (habituated rats; [8]): caused an activation, although smaller than that of OSU6162
- effect on apomorphine-induced hypomotility ([1]; apomorphine 0.08 μmol/kg s.c., ACR16 i.p., higher dose): tended to inhibit activity further
- effect on apomorphine-induced hypomotility [1, 10]: did not have any noticeable effect on apomorphine-induced hypoactivity
- motor activity (rats [6]): marked reduction in motor activity
- effect on amphetamine-induced hyperactivity [5]: reverse amphetamine-induced hyperactivity

Structure (SMILES): CCN1CCCC1CNC(=O)c1cc(S(=O)(=O)CC)c(N)cc1OC (stereo not drawn) [amisulpride, reference compound]
- motor activity (velocity) (active rats; [9]): inhibited motor activity slightly at the highest dose tested
- motor activity (accumulated unrepeated beam breaks) (habituated rats; [8]): Neither haloperidol (0.1-0.8 μmol/kg) nor amisulpride (33-300 μmol/kg) had any significant effects on motor activity
- effect on apomorphine-induced hypomotility ([1]; amisulpride 270 μmol/kg, s.c., data not shown): a mere tendency towards reversal of apomorphine-induced hypoactivity
- effect on apomorphine-induced hypomotility [1, 10]: effectively counteracted apomorphine-induced hypoactivity
- penetration of biological membranes [7]: poor penetration of biological membranes

Structure (SMILES): CN1CCc2cccc3c2[C@H]1Cc1ccc(O)c(O)c1-3 [apomorphine, R-(−)-Apomorphine hydrochloride hemihydrate]
- locomotor activity (velocity) (active rats; apomorphine 0.04-0.16 μmol/kg s.c., 5 min prior to registration): dose dependent inhibiting effect on locomotor activity
- motor activity (velocity) (active rats; apomorphine higher dose-interval 0.16-64 μmol/kg s.c.): motor activity began to return towards a level similar to that observed in controls
- dose of maximal inhibition of motor activity (active rats; apomorphine s.c.): 0.16 µmol/kg

Structure (SMILES): O=C1CCc2ccc(OCCCCN3CCN(c4cccc(Cl)c4Cl)CC3)cc2N1 [aripiprazole, reference compound]
- motor activity (velocity) (active rats; [9]): marked and dose-dependent inhibition on motor activity, that was statistically significant at all doses tested
- motor activity (accumulated unrepeated beam breaks) (habituated rats; t=0-30 min after injection): dose-dependent inhibition during the first 30 minutes after injection, which was statistically significant at the highest dose
- motor activity (accumulated unrepeated beam breaks) (habituated rats; t=30-60 min after injection): did not affect locomotor activity

Structure (SMILES): O=C(CCCN1CCC(O)(c2ccc(Cl)cc2)CC1)c1ccc(F)cc1 [haloperidol, reference compound]
- motor activity relative to control (active rats; haloperidol 0.8 μmol/kg, s.c.): approximately 7 % of control level
- motor activity (velocity) (active rats; [9]): statistically significant inhibition at the highest dose
- motor activity (accumulated unrepeated beam breaks) (habituated rats; [8]): Neither haloperidol (0.1-0.8 μmol/kg) nor amisulpride (33-300 μmol/kg) had any significant effects on motor activity
- effect on apomorphine-induced hypomotility [1, 10]: no statistically significant effects on motor activity
